Experimental data from the supplement of paper PMC10307832.

Key:
Experiment in all cases: relative viability (nuclei count vs DMSO), 5 days (fraction); higher = more cells survive
Bleomycin + Vorinostat = compound: CC1=C(N=C(N=C1N)[C@H](CC(=O)N)NC[C@@H](C(=O)N)N)C(=O)N[C@@H]([C@H](C2=CN=CN2)OC3C(C(C(C(O3)CO)O)O)OC4C(C(C(C(O4)CO)O)OC(=O)N)O)C(=O)N[C@H](C)[C@H]([C@H](C)C(=O)N[C@@H]([C@@H](C)O)C(=O)NCCC5=NC(=CS5)C6=NC(=CS6)C(=O)NCCC[S+](C)C)O [Bleomycin] + O=C(CCCCCCC(=O)Nc1ccccc1)NO [Vorinostat] (partner 1 µM); conditions: main component drawn
Outline: (§1)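 Each reported value is a median over duplicate plates. It expresses relative viability: treated-well nuclei count divided by vehicle-well nuclei count. Lung cancer cell lines in 1536-well plates were dosed by pin tool a day after seeding, alone with one drug or with a fixed anchor-drug dose plus five library-drug doses (not always all listed) in √10 steps, and nuclei were counted after 5 days.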

Etoposide + Linsitinib = compound: COc1cc([C@@H]2c3cc4c(cc3[C@@H](O[C@@H]3O[C@@H]5CO[C@@H](C)O[C@H]5[C@H](O)[C@H]3O)[C@H]3COC(=O)[C@H]23)OCO4)cc(OC)c1O [Etoposide] + C[C@]1(O)C[C@@H](c2nc(-c3ccc4ccc(-c5ccccc5)nc4c3)c3c(N)nccn32)C1 [Linsitinib] (partner 1 µM)
Outline: as §1

Etoposide + Dasatinib = compound: COc1cc([C@@H]2c3cc4c(cc3[C@@H](O[C@@H]3O[C@@H]5CO[C@@H](C)O[C@H]5[C@H](O)[C@H]3O)[C@H]3COC(=O)[C@H]23)OCO4)cc(OC)c1O [Etoposide] + Cc1nc(Nc2ncc(C(=O)Nc3c(C)cccc3Cl)s2)cc(N2CCN(CCO)CC2)n1 [Dasatinib] (partner 0.075 µM)
Outline: as §1

Bleomycin + Alpelisib = compound: CC1=C(N=C(N=C1N)[C@H](CC(=O)N)NC[C@@H](C(=O)N)N)C(=O)N[C@@H]([C@H](C2=CN=CN2)OC3C(C(C(C(O3)CO)O)O)OC4C(C(C(C(O4)CO)O)OC(=O)N)O)C(=O)N[C@H](C)[C@H]([C@H](C)C(=O)N[C@@H]([C@@H](C)O)C(=O)NCCC5=NC(=CS5)C6=NC(=CS6)C(=O)NCCC[S+](C)C)O [Bleomycin] + Cc1nc(NC(=O)N2CCC[C@H]2C(N)=O)sc1-c1ccnc(C(C)(C)C(F)(F)F)c1 [Alpelisib] (partner 2 µM); conditions: main component drawn
Outline: as §1

UMC-11
relative viability (Bleomycin + Vorinostat; first compound 0.01 µM): 0.364
relative viability (Bleomycin + Vorinostat; first compound 0.03162 µM): 0.346
relative viability (Bleomycin + Vorinostat; first compound 0.1 µM): 0.311
relative viability (Bleomycin + Vorinostat; first compound 0.3162 µM): 0.278
relative viability (Bleomycin + Vorinostat; first compound 1 µM): 0.232
relative viability (Etoposide + Linsitinib; first compound 0.01 µM): 0.962
relative viability (Etoposide + Linsitinib; first compound 0.03162 µM): 1.05
relative viability (Etoposide + Linsitinib; first compound 0.3162 µM): 0.493
relative viability (Etoposide + Linsitinib; first compound 1 µM): 0.302
relative viability (Etoposide + Dasatinib; first compound 0.01 µM): 0.455
relative viability (Etoposide + Dasatinib; first compound 0.03162 µM): 0.38
relative viability (Etoposide + Dasatinib; first compound 0.1 µM): 0.316
relative viability (Etoposide + Dasatinib; first compound 0.3162 µM): 0.38
relative viability (Etoposide + Dasatinib; first compound 1 µM): 0.259
relative viability (Bleomycin + Alpelisib; first compound 0.01 µM): 0.873
relative viability (Bleomycin + Alpelisib; first compound 0.03162 µM): 0.935
relative viability (Bleomycin + Alpelisib; first compound 0.1 µM): 0.826
relative viability (Bleomycin + Alpelisib; first compound 0.3162 µM): 0.598
relative viability (Bleomycin + Alpelisib; first compound 1 µM): 0.44
